The text below walks through data of patent publication US20260325685A1, “Radiopharmaceutical Compositions Targeting Carbonic Anhydrase IX and Uses Thereof” (RayzeBio, Inc., priority 2023, published 2026).

Molecules are shown by their SMILES. pKd: −log10 of the molar value. Read-outs that look alike come from different tables or passages of the source.

One assay deals with T1, human CA-XII (Homo sapiens, UniProt O43570).
T1 construct: purchased Creative BioMart CA12-261H
As to the kind of experiment: Surface Plasmon Resonance (SPR) binding kinetics to recombinant human CA-XII (Biacore 8K, single-cycle kinetics, 1:1 binding model). The method, then: (§1) G1. Surface Plasmon Resonance Assay Conditions for hCA-IX and hCA-XII
(§2) Surface Plasmon Resonance (SPR) experiments were conducted on a Biacore 8K instrument (Cytiva, Marlborough, MA) to determine the binding kinetics of the compound to recombinant human CA-IX (Acro, CA9-H82E3) and CA-XII (Creative BioMart, CA12-261H) proteins. The ligands were diluted to 10 μg/mL in PBS-P+ buffer (20 mM phosphate buffer, pH 7.4, with 2.7 mM KCl, 137 mM NaCl, and 0.05% Tween 20) and captured on Series S Streptavidin Sensor Chips (Cytiva, 29699621) to 1200-1800 response units (RU) using a flow rate of 5 μL/min and injection times of 180 seconds for human CA-IX and 75 seconds for human CA-XII. Analyte binding was evaluated using a single-cycle kinetics method over 9 analyte concentrations (100-0.39 nM) in PBS-P+ buffer with 1% DMSO using a 50 μL/min. flow rate, 120 second association time, and 1200 second dissociation time. The flow cell temperature was set to 25° C. Analyte binding curves were fit to a 1:1 binding kinetic model in Biacore Insight Evaluation software (version 4.0.8.20368) following reference flow cell subtraction and DMSO correction to derive the association and dissociation binding constants.
(In general: Surface plasmon resonance follows binding to a sensor surface in real time, without labels.)

For another assay, the target named is T2, human CA-IX (Homo sapiens, UniProt Q16790).
T2 construct: purchased Acro CA9-H82E3
The assay is described as follows: Surface Plasmon Resonance (SPR) binding kinetics to recombinant human CA-IX (Biacore 8K, single-cycle kinetics, 1:1 binding model). The method, then: as §1, §2

[1] abbreviates: Chelated Metal: Lu-175, 25° C., pH 7.4, read-out: CAXII KD.
The mark [2] stands for this setting: Chelated Metal: Lu-175; SPR, 25° C., pH 7.4; read-out: CAIX KD.

Broadly, the pKd is the negative decadic logarithm of the Kd, by convention in mol/L.

T1 sequence (O43570 25-354): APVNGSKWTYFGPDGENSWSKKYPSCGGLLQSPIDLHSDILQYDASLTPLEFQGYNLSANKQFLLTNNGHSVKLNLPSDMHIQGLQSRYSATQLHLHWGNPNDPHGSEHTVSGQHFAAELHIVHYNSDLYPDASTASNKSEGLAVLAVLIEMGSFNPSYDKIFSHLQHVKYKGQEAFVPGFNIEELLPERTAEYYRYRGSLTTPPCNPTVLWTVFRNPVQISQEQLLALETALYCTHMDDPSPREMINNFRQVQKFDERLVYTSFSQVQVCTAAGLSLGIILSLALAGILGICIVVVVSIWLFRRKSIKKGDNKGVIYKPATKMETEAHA

As to `CC(CCC(=O)N[C@@H](CC(=O)N[C@@H](CCC(=O)NC1(C(=O)NCCOCCOCCNC(=O)CN2CCN(CC(=O)O)CCN(CC(=O)O)CCN(CC(=O)O)CC2)CN(C(=O)Cn2cc(CCCC(=O)Nc3nnc(S(N)(=O)=O)s3)nn2)C1)C(=O)O)C(=O)O)(c1ccc(O)cc1)c1ccc(O)cc1.[Lu+3]` [Compound 103.1], the pKd on human CA-XII (setting [1]) is 8.00 to 8.60; on human CA-IX (setting [2]) it was 8.60 to 9.00.
Regarding `NS(=O)(=O)c1nnc(NC(=O)C23CC(c4cn(CCNC(=O)[C@@H]5CN(C(=O)CN6CCN(CC(=O)O)CCN(CC(=O)O)CCN(CC(=O)O)CC6)CCN5C(=O)C[C@H](NC(=O)C[C@H](NC(=O)CCC56CCC(CC5)C6)C(=O)O)C(=O)O)nn4)(C2)C3)s1.[Lu+3]` [Compound 109.9], the values for the pKd on human CA-XII (setting [1]) and at human CA-IX (setting [2]) were 8.60 to 9.00 and more than 9.00, respectively.
For `CC(CCC(=O)N[C@@H](CC(=O)N[C@@H](CC(=O)N[C@@H](CCCCn1cc(C23CCC(C(=O)Nc4nnc(S(N)(=O)=O)s4)(CC2)C3)nn1)C(=O)N1CCN(C(=O)CN2CCN(CC(=O)O)CCN(CC(=O)O)CCN(CC(=O)O)CC2)CC1)C(=O)O)C(=O)O)(c1ccc(O)cc1)c1ccc(O)cc1.[Lu+3]` [Compound 100.13] the same measures were more than 9.00 and more than 9.00.
`NS(=O)(=O)c1nnc(NC(=O)C23CC(c4cn(CCNC(=O)[C@@H]5CN(C(=O)CN6CCN(CC(=O)O)CCN(CC(=O)O)CCN(CC(=O)O)CC6)CCN5C(=O)C[C@H](NC(=O)C[C@H](NC(=O)CCc5ccc(O)cc5)C(=O)O)C(=O)O)nn4)(C2)C3)s1.[Lu+3]` [Compound 109.5]: the pKd at human CA-XII (setting [1]) is 8.00 to 8.60; at human CA-IX (setting [2]), 8.60 to 9.00.
On to `CC(CCCC(=O)N1CCC(C(N)=O)(C(=O)NCC(=O)NC2(C(=O)NCCn3cc(C45CCC(C(=O)Nc6nnc(S(N)(=O)=O)s6)(CC4)CC5)nn3)CCN(C(=O)CN3CCN(CC(=O)O)CCN(CC(=O)O)CCN(CC(=O)O)CC3)CC2)CC1)(c1ccc(O)cc1)c1ccc(O)cc1.[Lu+3]` [Compound 117.6], for which the pKd at human CA-XII (setting [1]) is 8.60 to 9.00; on human CA-IX (setting [2]), more than 9.00.
For `NS(=O)(=O)c1nnc(NC(=O)C23CC(c4cn(CCNC(=O)[C@@H]5CN(C(=O)CN6CCN(CC(=O)O)CCN(CC(=O)O)CCN(CC(=O)O)CC6)CCN5C(=O)CNC(=O)C5(C(=O)O)CCN(C(=O)CCCCc6ccc(O)cc6)CC5)nn4)(C2)C3)s1.[Lu+3]` [Compound 112.3], in that order: less than 8.00 and 8.60 to 9.00.
For `CC(CCCC(=O)N1CCC(C(N)=O)(C(=O)NCC(=O)N2CCN(C(=O)CC[C@H](C(=O)O)N3CCN(CC(=O)O)CCN(CC(=O)O)CCN(CC(=O)O)CC3)C[C@H]2C(=O)NCCn2cc(C34CC(C(=O)Nc5nnc(S(N)(=O)=O)s5)(C3)C4)nn2)CC1)(c1ccc(O)c(F)c1)c1ccc(O)c(F)c1.[Lu+3]` [Compound 127.8], in that order: less than 8.00 and more than 9.00.
`CC(CCC(=O)N[C@@H](CC(=O)N[C@@H](CC(=O)N1CCN(C(=O)CCOCCOCCOCCOCCN(CCOCCOCCOCCOCCC(=O)N2CCN(C(=O)C[C@H](NC(=O)C[C@H](NC(=O)CCC(C)(c3ccc(O)cc3)c3ccc(O)cc3)C(=O)O)C(=O)O)[C@H](C(=O)NCCn3cc(C45CC(C(=O)Nc6nnc(S(N)(=O)=O)s6)(C4)C5)nn3)C2)C(=O)CN2CCN(CC(=O)O)CCN(CC(=O)O)CCN(CC(=O)O)CC2)C[C@H]1C(=O)NCCn1cc(C23CC(C(=O)Nc4nnc(S(N)(=O)=O)s4)(C2)C3)nn1)C(=O)O)C(=O)O)(c1ccc(O)cc1)c1ccc(O)cc1` [Compound 131.1]: the pKd is more than 9.00 at human CA-XII (Chelated Metal: None, 25° C., pH 7.4, read-out: CAXII KD) and more than 9.00 at human CA-IX (Chelated Metal: None; SPR, 25° C., pH 7.4; read-out: CAIX KD). Further, the “Ratio (CAXII/CAIX)” value at human CA-IX (KD ratio CAXII/CAIX; Chelated Metal: None) was “* (1 < * < 5)”.
Turning to `NS(=O)(=O)c1nnc(NC(=O)C23CC(c4cn(CCNC(=O)[C@H]5CN(C(=O)CN6CCN(CC(=O)O)CCN(CC(=O)O)CCN(CC(=O)O)CC6)CCN5C(=O)CC[C@H](NC(=O)c5n[nH]c6ccccc56)C(=O)O)nn4)(C2)C3)s1.[Lu+3]` [Compound 107.17], the pKd is 8.60 to 9.00 on human CA-XII (setting [1]) and more than 9.00 on human CA-IX (setting [2]).
As to `CC(CCCC(=O)N1CCC(C(N)=O)(C(=O)NCC(=O)N2CCN(C(=O)CC[C@H](C(=O)O)N3CCN(CC(=O)O)CCN(CC(=O)O)CCN(CC(=O)O)CC3)C[C@@H]2C(=O)NCCn2cc(C34CC(C(=O)Nc5nnc(S(N)(=O)=O)s5)(C3)C4)nn2)CC1)(c1ccc(O)cc1)c1ccc(O)cc1.[Lu+3]` [Compound 127.2], the pKd on human CA-XII (setting [1]) is less than 8.00; on human CA-IX (setting [2]) it was more than 9.00.
Regarding `CC(CCCC(=O)N1CCC(C(N)=O)(C(=O)NCC(=O)N2CCN(C(=O)CCC(C(=O)O)N3CCN(CC(=O)O)CCN(CC(=O)O)CC3)C[C@@H]2C(=O)NCCn2cc(C34CC(C(=O)Nc5nnc(S(N)(=O)=O)s5)(C3)C4)nn2)CC1)(c1ccc(O)cc1)c1ccc(O)cc1.[Cu+2]` (stereo partly drawn) [Compound 127.3], the pKd on human CA-XII (Chelated Metal: Cu (cold), 25° C., pH 7.4, read-out: CAXII KD) is less than 8.00; at human CA-IX (Chelated Metal: Cu (cold); SPR, 25° C., pH 7.4; read-out: CAIX KD), more than 9.00.
In the case of `NS(=O)(=O)c1nnc(NC(=O)C23CC(c4cn(CCNC(=O)[C@@H]5CN(C(=O)CN6CCN(CC(=O)O)CCN(CC(=O)O)CCN(CC(=O)O)CC6)CCN5C(=O)CNC(=O)C5(C(=O)O)CCN(C(=O)c6ccc(C7CC7)nn6)CC5)nn4)(C2)C3)s1.[Lu+3]` [Compound 112], the pKd was less than 8.00 on human CA-XII (read-out: CAXII KD, Chelated Metal: Lu-175, 25° C., pH 7.4) and 8.00 to 8.60 at human CA-IX (read-out: CAIX KD; Chelated Metal: Lu-175; SPR, 25° C., pH 7.4).
Take `CC(CCC(=O)N[C@@H](CC(=O)N[C@@H](CC(=O)N1CCN(C(=O)CN2CCN(CC(=O)O)CCN(CC(=O)O)CCN(CC(=O)O)CC2)C[C@H]1C(=O)NCCn1cc(COc2ccc3nc(S(N)(=O)=O)sc3c2)nn1)C(=O)O)C(=O)O)(c1ccc(O)cc1)c1ccc(O)cc1.[Lu+3]` [Compound 107.26]: the pKd at human CA-XII (setting [1]) is less than 8.00; on human CA-IX (setting [2]) it was more than 9.00.
As for `CC(CCCC(=O)N1CCC(C(N)=O)(C(=O)NCC(=O)NC2(C(=O)NCCn3cc(COc4ccc5nc(S(N)(=O)=O)sc5c4)nn3)CCN(C(=O)CN3CCN(CC(=O)O)CCN(CC(=O)O)CCN(CC(=O)O)CC3)CC2)CC1)(c1ccc(O)cc1)c1ccc(O)cc1.[Lu+3]` [Compound 117.8], the pKd at human CA-XII (setting [1]) is less than 8.00; at human CA-IX (setting [2]), more than 9.00.
Take `NS(=O)(=O)c1nnc(NC(=O)C23CCC(c4cn(CCNC(=O)[C@@H]5CN(C(=O)CN6CCN(CC(=O)O)CCN(CC(=O)O)CCN(CC(=O)O)CC6)CCN5C(=O)CC[C@H](NC(=O)C[C@H](NC(=O)c5ccc(C6CC6)nc5)C(=O)O)C(=O)O)nn4)(CC2)CC3)s1.[Lu+3]` [Compound 109.56]: the pKd at human CA-XII (setting [1]) is 8.60 to 9.00; on human CA-IX (setting [2]), more than 9.00.
As for `CC(CCC(=O)N[C@@H](CC(=O)N[C@@H](CCC(=O)NC1(C(=O)NCCOCCOCCNC(=O)CN2CCN(CC(=O)O)CCN(CC(=O)O)CCN(CC(=O)O)CC2)CCN(C(=O)Cn2cc(CCCC(=O)Nc3nnc(S(N)(=O)=O)s3)nn2)CC1)C(=O)O)C(=O)O)(c1ccc(O)cc1)c1ccc(O)cc1.[Lu+3]` [Compound 103.2], the pKd was 8.00 to 8.60 on human CA-XII (setting [1]) and 8.60 to 9.00 at human CA-IX (setting [2]).
As to `CC(CCNC(=O)c1cnc(N[C@@H](CC(=O)N2CCN(C(=O)CN3CCN(CC(=O)O)CCN(CC(=O)O)CCN(CC(=O)O)CC3)C[C@@H]2C(=O)NCCn2cc(C34CC(C(=O)Nc5nnc(S(N)(=O)=O)s5)(C3)C4)nn2)C(=O)O)nc1)(c1ccc(O)cc1)c1ccc(O)cc1.[Lu+3]` [Compound 111.1], the pKd is less than 8.00 at human CA-XII (setting [1]) and 8.60 to 9.00 on human CA-IX (setting [2]).
With `Cc1cc(-c2cn(CCNC(=O)[C@@H]3CN(C(=O)CN4CCN(CC(=O)O)CCN(CC(=O)O)CCN(CC(=O)O)CC4)CCN3C(=O)C[C@H](NC(=O)C[C@H](NC(=O)CCC(C)(c3ccc(O)cc3)c3ccc(O)cc3)C(=O)O)C(=O)O)nn2)ccc1C(=O)Nc1nnc(S(N)(=O)=O)s1.[Lu+3]` [Compound 107.40], the pKd at human CA-XII (setting [1]) is more than 9.00.
